Results published in patent publication US20250034150A1, “BTK INHIBITORS” (BIOGEN MA INC., priority 2021, published 2025).
Like-named read-outs stand apart in the source and are kept apart here.

What was measured:
[1] = test system: CD69 expression on CD19+ B cells in human whole blood; assay: In Vitro whole blood CD69 Assay; assay type: cell-based; conditions: B-cell, read-out: In Vitro HWB CD69 Assay IC50 Score
Method: Human heparinized venous blood from health donors was aliquoted into 96-well plate and “spiked” with serial dilutions of formula I compounds in DMSO or with DMSO without drug. The final concentration of DMSO in all wells was 0.1%. The plate was incubated at 37° C. for 30 min. Drug-containing samples were stimulated with 0.1 μg/mL mouse anti-human IgD-dextran (1A62) or 20 μg/mL polyclonal rabbit F(ab′)2 anti-human IgD. Phosphate-buffered saline (PBS) was added to the negative control unstimulated sample and the plates were incubated overnight (18 to 22 hours) at 37° C. Cells were stained with fluorochrome-conjugated anti-CD19 and anti-CD69 antibodies. Lyse/fix solution was used to remove red blood cells by hypotonic lysis and to fix the remaining cells, which were then analyzed by flow cytometry. CD19+ B cells were gated and analyzed for CD69 expression.

BTK = target: T1, BTK (Homo sapiens, UniProt Q06187); assay: In Vitro BTK Kinase Assay: Btk-PolyGAT-LS Assay; assay type: biochemical; conditions: active BTK enzyme 0.25 nM, polyGAT 100 nM, 30 minutes, TRF readout; read-out: In Vitro BTK Kinase Assay IC50 Score
T1 construct: purchased Upstate 14-552
Method: The purpose of the BTK in vitro assay is to determine compound potency against BTK through the measurement of IC50. Compound inhibition is measured after monitoring the amount of phosphorylation of a fluorescein-labeled polyGAT peptide (Invitrogen PV3611) in the presence of active BTK enzyme (Upstate 14-552), ATP, and inhibitor. The BTK kinase reaction was done in a black 96 well plate (costar 3694). For a typical assay, a 24 μL aliquot of a ATP/peptide master mix (final concentration; ATP […], polyGAT 100 nM) in kinase buffer (10 mM Tris-HCl pH 7.5, 10 mM MgCl2, 200 μM […], 5 mM DTT, 0.01% Triton X-100, and 0.2 mg/ml casein) is added to each well. Next, […] of a 4-fold, 40× compound titration in 100% DMSO solvent is added, followed by adding 15 μL of BTK enzyme mix in 1× kinase buffer (with a final concentration of 0.25 nM). The assay is incubated for 30 minutes before being stopped with 28 μL of a 50 mM EDTA solution. Aliquots (5 uL) of the kinase reaction are transferred to a low volume white 384 well plate (Coming 3674), and 5 μL of a 2× detection buffer (Invitrogen PV3574, with 4 nM Tb—PY20 antibody, Invitrogen PV3552) is added. The plate is covered and incubated for 45 minutes at room temperature. Time resolved fluorescence (TRF) on Molecular Devices M5 (332 nm excitation; 488 nm emission; 518 nm fluorescein emission) is measured. IC50 values are calculated using a four parameter fit with 100% enzyme activity determined from the DMSO control and 0% activity from the EDTA control.

[2] = human heparinized whole blood, anti-human IgD stimulation overnight, CD19+ B cells, flow cytometry

T1 sequence (Q06187 whole entry): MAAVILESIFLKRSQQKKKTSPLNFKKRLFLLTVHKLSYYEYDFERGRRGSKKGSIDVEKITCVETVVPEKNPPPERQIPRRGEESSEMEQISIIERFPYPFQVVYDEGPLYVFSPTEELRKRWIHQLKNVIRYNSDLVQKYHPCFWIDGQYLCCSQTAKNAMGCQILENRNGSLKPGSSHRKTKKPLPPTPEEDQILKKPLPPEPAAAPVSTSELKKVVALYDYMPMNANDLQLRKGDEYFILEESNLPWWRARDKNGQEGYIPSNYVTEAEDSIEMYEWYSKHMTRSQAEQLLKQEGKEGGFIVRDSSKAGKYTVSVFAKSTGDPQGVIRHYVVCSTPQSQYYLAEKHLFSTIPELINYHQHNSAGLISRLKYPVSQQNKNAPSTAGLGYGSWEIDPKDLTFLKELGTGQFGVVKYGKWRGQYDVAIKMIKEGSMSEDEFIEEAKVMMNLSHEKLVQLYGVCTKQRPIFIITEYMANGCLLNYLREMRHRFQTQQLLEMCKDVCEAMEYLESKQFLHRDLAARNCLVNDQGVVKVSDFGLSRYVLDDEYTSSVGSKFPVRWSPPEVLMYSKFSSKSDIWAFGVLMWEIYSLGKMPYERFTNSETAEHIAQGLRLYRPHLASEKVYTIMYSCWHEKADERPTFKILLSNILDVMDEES

| Compound | IC50 [1, 2] | IC50 (BTK) | IC50 ([1]; Homo sapiens) |
| --- | --- | --- | --- |
| Cn1cc(-c2cn3nccc3c(-c3ccc(CNC(=O)c4cn(C(C)(C)C)nn4)cc3)n2)cn1 [Example 4, 1-(tert-butyl)-N-(4-(6-(1-methyl-1H-pyrazol-4-yl)pyrazolo[1,5-a]pyrazin-4-yl)benzyl)-1H-1,2,3-triazole-4-carboxamide] | < 1000 nM | < 1 nM | – |
| Cn1cc(-c2cn3nccc3c(-c3ccc(CNC(=O)c4noc(C5(C)CC5)n4)cc3)n2)cn1 [Example 5, N-(4-(6-(1-methyl-1H-pyrazol-4-yl)pyrazolo[1,5-a]pyrazin-4-yl)benzyl)-5-(1-methylcyclopropyl)-1,2,4-oxadiazole-3-carboxamide] | < 1000 nM | < 1 nM | – |
| Cn1cc(-c2cn3nccc3c(-c3ccc(CNC(=O)c4nnc(C(C)(C)C)o4)c(F)c3)n2)cn1 [Example 6, 5-(tert-butyl)-N-(2-fluoro-4-(6-(1-methyl-1H-pyrazol-4-yl)pyrazolo[1,5-a]pyrazin-4-yl)benzyl)-1,3,4-oxadiazole-2-carboxamide] | – | < 1 nM | < 1000 nM |
| Cn1cc(-c2cn3nccc3c(-c3ccc(CNC(=O)c4nnn(C(C)(C)C)n4)c(F)c3)n2)cn1 [Example 7, 2-(tert-butyl)-N-(2-fluoro-4-(6-(1-methyl-1H-pyrazol-4-yl)pyrazolo[1,5-a]pyrazin-4-yl)benzyl)-2H-tetrazole-5-carboxamide] | < 1000 nM | < 1 nM | – |
| Cn1cc(-c2cn3nccc3c(-c3ccc(CNC(=O)c4noc(C5(C)CC5)n4)c(F)c3)n2)cn1 [Example 8, N-(2-fluoro-4-(6-(1-methyl-1H-pyrazol-4-yl)pyrazolo[1,5-a]pyrazin-4-yl)benzyl)-5-(1-methylcyclopropyl)-1,2,4-oxadiazole-3-carboxamide] | < 1000 nM | < 1 nM | – |
| Cn1cc(-c2cn3nccc3c(-c3ccc(CNC(=O)c4cn(C(C)(C)C)nn4)c(F)c3)n2)cn1 [Example 9, 1-(tert-butyl)-N-(2-fluoro-4-(6-(1-methyl-1H-pyrazol-4-yl)pyrazolo[1,5-a]pyrazin-4-yl)benzyl)-1H-1,2,3-triazole-4-carboxamide] | < 1000 nM | < 1 nM | – |
| Cn1cc(-c2cn3nccc3c(-c3ccc(CNC(=O)c4cnn(C(C)(C)C)c4)c(F)c3)n2)cn1 [Example 10, 1-(tert-butyl)-N-(2-fluoro-4-(6-(1-methyl-1H-pyrazol-4-yl)pyrazolo[1,5-a]pyrazin-4-yl)benzyl)-1H-pyrazole-4-carboxamide] | < 1000 nM | < 1 nM | – |
| Cn1cc(-c2cn3nccc3c(-c3ccc(CNC(=O)c4ccn(C(C)(C)C)n4)c(F)c3)n2)cn1 [Example 11, 1-(tert-butyl)-N-(2-fluoro-4-(6-(1-methyl-1H-pyrazol-4-yl)pyrazolo[1,5-a]pyrazin-4-yl)benzyl)-1H-pyrazole-3-carboxamide] | 1000 to 10000 nM | 1 to 10 nM | – |
| Cn1cc(-c2cn3nccc3c(-c3ccc(CNC(=O)c4coc(C(C)(C)C)n4)c(F)c3)n2)cn1 [Example 12, 2-(tert-butyl)-N-(2-fluoro-4-(6-(1-methyl-1H-pyrazol-4-yl)pyrazolo[1,5-a]pyrazin-4-yl)benzyl)oxazole-4-carboxamide] | < 1000 nM | < 1 nM | – |
| Cn1cc(-c2cn3nccc3c(-c3ccc(CNC(=O)c4nc(C(C)(C)CF)no4)c(F)c3)n2)cn1 [Example 13, 3-(1-fluoro-2-methylpropan-2-yl)-N-(2-fluoro-4-(6-(1-methyl-1H-pyrazol-4-yl)pyrazolo[1,5-a]pyrazin-4-yl)benzyl)-1,2,4-oxadiazole-5-carboxamide] | < 1000 nM | < 1 nM | – |
| Cc1cc(-c2nc(-c3cnn(C)c3)cn3nccc23)ccc1CNC(=O)c1nnc(C(C)(C)C)o1 [Example 14, 5-(tert-butyl)-N-(2-methyl-4-(6-(1-methyl-1H-pyrazol-4-yl)pyrazolo[1,5-a]pyrazin-4-yl)benzyl)-1,3,4-oxadiazole-2-carboxamide] | – | < 1 nM | < 1000 nM |
| Cc1cc(-c2nc(-c3cnn(C)c3)cn3nccc23)ccc1CNC(=O)c1nnn(C(C)(C)C)n1 [Example 15, 2-(tert-butyl)-N-(2-methyl-4-(6-(1-methyl-1H-pyrazol-4-yl)pyrazolo[1,5-a]pyrazin-4-yl)benzyl)-2H-tetrazole-5-carboxamide] | < 1000 nM | < 1 nM | – |
| Cc1cc(-c2nc(-c3cnn(C)c3)cn3nccc23)ccc1CNC(=O)c1cn(C(C)(C)C)nn1 [Example 16, 1-(tert-butyl)-N-(2-methyl-4-(6-(1-methyl-1H-pyrazol-4-yl)pyrazolo[1,5-a]pyrazin-4-yl)benzyl)-1H-1,2,3-triazole-4-carboxamide] | < 1000 nM | < 1 nM | – |
| Cc1cc(-c2nc(-c3cnn(C)c3)cn3nccc23)ccc1CNC(=O)c1cnn(C(C)(C)C)c1 [Example 17, 1-(tert-butyl)-N-(2-methyl-4-(6-(1-methyl-1H-pyrazol-4-yl)pyrazolo[1,5-a]pyrazin-4-yl)benzyl)-1H-pyrazole-4-carboxamide] | < 1000 nM | < 1 nM | – |
| Cc1cc(-c2nc(-c3cnn(C)c3)cn3nccc23)ccc1CNC(=O)c1ccn(C(C)(C)C)n1 [Example 18, 1-(tert-butyl)-N-(2-methyl-4-(6-(1-methyl-1H-pyrazol-4-yl)pyrazolo[1,5-a]pyrazin-4-yl)benzyl)-1H-pyrazole-3-carboxamide] | < 1000 nM | 1 to 10 nM | – |
| Cn1cc(-c2cn3nccc3c(-c3ccc(CNC(=O)c4nc(C(C)(C)C)no4)cc3)n2)cn1 [Example 19, 3-(tert-butyl)-N-(4-(6-(1-methyl-1H-pyrazol-4-yl)pyrazolo[1,5-a]pyrazin-4-yl)benzyl)-1,2,4-oxadiazole-5-carboxamide] | < 1000 nM | < 1 nM | – |
| Cn1cc(-c2cn3nccc3c(-c3ccc(CNC(=O)c4noc(C5(CF)CC5)n4)cc3)n2)cn1 [Example 20, 5-(1-(fluoromethyl)cyclopropyl)-N-(4-(6-(1-methyl-1H-pyrazol-4-yl)pyrazolo[1,5-a]pyrazin-4-yl)benzyl)-1,2,4-oxadiazole-3-carboxamide] | < 1000 nM | < 1 nM | – |
| Cn1cc(-c2cn3nccc3c(-c3ccc(CNC(=O)c4cnn(C(C)(C)C)n4)cc3)n2)cn1 [Example 21, 2-(tert-butyl)-N-(4-(6-(1-methyl-1H-pyrazol-4-yl)pyrazolo[1,5-a]pyrazin-4-yl)benzyl)-2H-1,2,3-triazole-4-carboxamide] | 1000 to 10000 nM | < 1 nM | – |
| Cn1cc(-c2cn3nccc3c(-c3ccc(CNC(=O)c4noc(C(C)(C)CF)n4)cc3)n2)cn1 [Example 22, 5-(1-fluoro-2-methylpropan-2-yl)-N-(4-(6-(1-methyl-1H-pyrazol-4-yl)pyrazolo[1,5-a]pyrazin-4-yl)benzyl)-1,2,4-oxadiazole-3-carboxamide] | < 1000 nM | < 1 nM | – |
| CC(C)(C)c1nc(C(=O)NCc2ccc(-c3nc(N4CCOCC4)cn4nccc34)cc2)no1 [Example 23, 5-(tert-butyl)-N-(4-(6-morpholinopyrazolo[1,5-a]pyrazin-4-yl)benzyl)-1,2,4-oxadiazole-3-carboxamide] | 1000 to 10000 nM | 1000 to 10000 nM | – |
| CC(C)(C)c1noc(C(=O)NCc2ccc(-c3nc(N4CCOCC4)cn4nccc34)cc2)n1 [Example 24, 3-(tert-butyl)-N-(4-(6-morpholinopyrazolo[1,5-a]pyrazin-4-yl)benzyl)-1,2,4-oxadiazole-5-carboxamide] | 1000 to 10000 nM | 10 to 1000 nM | – |
